The values that follow come from patent US20220175774A1, “Bioavailable Oral Dosage Form Of Tyrosine-Kinase Inhibitor” (Alembic Pharmaceuticals Limited, priority 2020, published 2022).

The series can be described thus: Stability study according to ICH guidelines. The class given is physicochemical.

Method: The total impurity content is measured after synthesis of the compound and compared with the measured total impurity content after storage for a designated period of time. […] Stability studies were conducted, according to the ICH guidelines, for 6 months at accelerated condition (40° C./75% RH) and at room temperature.

With `Cc1nc(Nc2ncc(C(=O)Nc3c(C)cccc3Cl)s2)cc(N2CCN(CCO)CC2)n1` [N-(2-chloro-6-methylphenyl)-2-[[6-[4-(2-hydroxyethyl)-1-piperazinyl]-2-methyl-4-pyrimidinyl]amino]-5-thiazolecarboxamide], the “total impurity content after storage” value (about 6 months at about 40° c. and about 75% RH) is “less than 4%”. In addition, the total impurity content entry (at 0 days) is given as “less than 3%”.
